Data published in US6759403B2, “Metalloporphyrins and their uses as radiosensitizers for radiation therapy” (Brookhaven Science Associates, LLC, priority 2001, dated 2004).
Where two headings read alike, the source gives them in different places.

Assays:
[1] = tested on: malignant brain tumors; conditions: clinical use of BPA; cited from earlier work
[2] = tested on: EMT-6 mammary carcinomas; assay: CuTCPH boron biodistribution in EMT-6 tumor-bearing mice (prior results, Rad. Res. 155, 603-610, 2001); format: in vivo, BALB/c mice
Description: There is a larger vascular system surrounding the dorsal thorax compared with the leg, which may be a factor. However, in the case of CuTCPH, the boron concentration was 30% higher in leg tumors compared to back tumors. Normalizing to the slightly higher dose of the first study, the tumor boron concentration should be about 29 and 15 μg/g at 2d and 5d, respectively, which are still low. Studies are underway to repeat these experiments.
The biodistribution properties for CuTCPBr are similar to other lipophilic tetracarboranyl tetraphenylporphyrins studied previously, particularly the results for CuTCPH which were reported in Rad. Res. 155, 603-610, 2001 and are listed in columns four and five of Table 4. The CuTCPH results were based on two groups of seven (7) BALB/c mice which were given 180 μg/gbw CuTCPH in six intraperitoneal injections over 2 days. The first group of mice was euthanized two days after the last injection and the second group four days after the last injection. The boron concentrations in different tissues were then measured.

[3] = tested on: subcutaneous 9L gliosarcomas; assay: Boron biodistribution after intravenous infusion in rat 9L gliosarcoma model (Examples 6 and 7); format: in vivo, Fischer 344 rats
Description: This example used the experimental rat 9L gliosarcoma model and the protocol used to administer porphyrins by intravenous infusion that were reported in J. NeuroOncol, 52, 111-117, 2001. Six (6) male Fischer 344 rats bearing subcutaneous 9L gliosarcomas were infused intravenously with CuTCPBr at a total dose of 220 μg/gbw over 48 hours. Tumor and blood were sampled from each at zero, one, two and three days after the end of infusion and the boron concentrations measured. In this example, the biodistribution of CuTCPBr was compared to CuTCPH. A group of six (6) male Fischer 344 rats bearing subcutaneous 9L gliosarcomas were infused intravenously with CuTCPBr at a total dose of 220 μg/gbw over 48 hours. A second group of four (4) male Fischer 344 rats bearing subcutaneous 9L gliosarcomas were infused intravenously with CuTCPH at a total dose of 195 μg/gbw. over 48 hours. Boron concentrations in tissues from both groups of rats were taken three days after the end of infusion. The results for the CuTCPBr group of rats are listed in column 2 of Table 6 and the results for the CuTCPH group of rats are listed in column 4 of Table 6. To account for the difference in porphyrin dose (195 μg/gbw for CuTCPH versus 220 μg/gbw for CuTCPBr) and the difference in % boron in each porphyrin (31.8% for CuTCPH versus 21.7 for CuTCPBr), the boron concentrations in tissues from rats given CuTCPBr were normalized so that they would be equivalent to the boron concentrations of rats given CuTCPH. This was done by multiplying the boron concentrations in the CuTCPBr group of rats by the CuTCPBr to CuTCPH boron dose ratio of 1.3. The normalized boron concentrations for the CuTCPBr group of rats are listed in column 3 of Table 6.

[4] = tested on: subcutaneous 9L gliosarcomas; assay: CuTCPH dose increase and tumor boron concentration in rats with 9L gliosarcomas; format: in vivo, Fischer 344 rats
Source text: Toxicity is the critical factor, and since no toxicity was observed, the dose can be increased to achieve tumor boron concentrations higher than those in Examples 2 and 3.

[5] = tested on: EMT-6 mammary carcinomas; conditions: 180 μg/gbw CuTCPH, 6 ip injections over 2 days, cited from earlier work
[6] = 195 μg/gbw CuTCPH (61.8 μg B/gbw) iv over 48 hours, 3 days after end of infusion

N[C@@H](Cc1ccc(B(O)O)cc1)C(=O)O [BPA, p-boronophenylalanine]
blood boron concentration relative to that found in tumor [1]: approximately one-third | brain boron concentration relative to that found in tumor [1]: approximately one-third | chemical toxicity associated with usage [1]: not eliciting any chemical toxicity

copper tetracarboranylmethoxyphenylporphyrin [CuTCPH]
decrease of liver boron from two to four days ([2]; 180 μg/gbw CuTCPH): 5% | boron concentration higher in leg tumors compared to back tumors ([2]; CuTCPH, leg versus back tumors): 30% | Boron Concentration, Brain [3, 6]: 3.2 (1.4) μg/g | Boron Concentration, Kidney [3, 6]: 16 (2) μg/g | Boron Concentration, Lacrimal Gland [3, 6]: 45 (11) μg/g | Boron Concentration, Liver [3, 6]: 638 (53) μg/g | Boron Concentration, Lung [3, 6]: 83 (12) μg/g | Boron Concentration, Lymph Nodes [3, 6]: 284 (68) μg/g | Boron Concentration, Parotid Gland [3, 6]: 125 (26) μg/g | Boron Concentration, Spleen [3, 6]: 832 (169) μg/g | Boron Concentration, Tongue [3, 6]: 47 (11) μg/g | Boron Concentration, Tumor [3, 6]: 63 (23) μg/g | Boron concentration, Ears [3, 6]: 17 (3) μg/g | Toxicity ([3]; rats, 220 μg/gbw CuTCPBr or 195 μg/gbw CuTCPH iv over 48 hours): does not appear to be a major problem | tumor boron concentration, median ([4]; CuTCPH total dose 195 mg/kg body weight): 64 µg/g | tumor boron concentration, median ([4]; CuTCPH total dose 450 mg/kg body weight): 117 µg/g | Boron Concentration, Blood ([5]; after 2 days): 0 (0) μg/g | Boron Concentration, Brain ([5]; after 2 days): 0.2 (0.1) μg/g | Boron Concentration, Ears (skin) ([5]; after 2 days): 8.4 (2.1) μg/g | Boron Concentration, Liver ([5]; after 2 days): 562 (79) μg/g | Boron Concentration, Tumor ([5]; after 2 days): 62 (10) μg/g | Boron Concentration, Blood ([5]; after 4 days): 0.3 (0.1) μg/g | Boron Concentration, Brain ([5]; after 4 days): 0.7 (0.3) μg/g | Boron Concentration, Ears (skin) ([5]; after 4 days): 14 (2.6) μg/g | Boron Concentration, Liver ([5]; after 4 days): 534 (124) μg/g | Boron Concentration, Tumor ([5]; after 4 days): 71 (9) μg/g
